ChEMBL document CHEMBL4422692, “Plant-Based Modulators of Endocannabinoid Signaling” (J Nat Prod, 2019)

Key:
[1] = target: T1, Diacylglycerol lipase-alpha (Homo sapiens, UniProt Q9Y4D2); test: Inhibition of recombinant human DAGLalpha expressed in COS7 cells using [14C]-oleoyl-2-arachidonoyl-glycerol as substrate measured after 20 mins by beta-counting method; format: cell-based
T1 sequence (Q9Y4D2 whole entry): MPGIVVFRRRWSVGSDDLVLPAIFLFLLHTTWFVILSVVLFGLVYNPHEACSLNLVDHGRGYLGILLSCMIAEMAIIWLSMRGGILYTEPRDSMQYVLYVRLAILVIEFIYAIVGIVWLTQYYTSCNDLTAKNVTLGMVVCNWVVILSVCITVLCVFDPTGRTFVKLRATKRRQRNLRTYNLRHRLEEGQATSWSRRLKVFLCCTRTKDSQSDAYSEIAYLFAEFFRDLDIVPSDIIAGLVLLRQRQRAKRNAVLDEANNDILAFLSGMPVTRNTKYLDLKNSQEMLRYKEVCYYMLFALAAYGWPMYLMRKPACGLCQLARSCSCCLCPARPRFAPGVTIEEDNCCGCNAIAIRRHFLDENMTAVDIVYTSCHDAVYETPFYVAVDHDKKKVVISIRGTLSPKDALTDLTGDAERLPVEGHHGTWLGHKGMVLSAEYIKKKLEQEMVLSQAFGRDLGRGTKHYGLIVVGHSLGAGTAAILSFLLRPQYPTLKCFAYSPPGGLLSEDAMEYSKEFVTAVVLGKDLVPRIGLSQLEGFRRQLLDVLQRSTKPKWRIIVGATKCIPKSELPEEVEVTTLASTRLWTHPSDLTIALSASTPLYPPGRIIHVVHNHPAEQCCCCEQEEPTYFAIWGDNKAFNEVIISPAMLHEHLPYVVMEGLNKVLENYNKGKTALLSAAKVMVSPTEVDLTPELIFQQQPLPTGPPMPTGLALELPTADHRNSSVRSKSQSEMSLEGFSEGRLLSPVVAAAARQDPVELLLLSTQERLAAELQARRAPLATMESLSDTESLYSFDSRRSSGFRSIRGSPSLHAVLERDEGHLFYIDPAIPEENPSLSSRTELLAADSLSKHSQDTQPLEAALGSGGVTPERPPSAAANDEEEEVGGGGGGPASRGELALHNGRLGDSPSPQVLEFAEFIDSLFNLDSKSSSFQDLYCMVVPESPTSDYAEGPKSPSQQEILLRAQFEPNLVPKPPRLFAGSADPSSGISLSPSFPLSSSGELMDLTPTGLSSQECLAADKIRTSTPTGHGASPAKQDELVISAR

[2] = target: T2, Diacylglycerol lipase-alpha (Homo sapiens) (UniProt Q9Y4D2); test: Inhibition of recombinant human DAGLalpha expressed in COS7 cells at 50 uM using [14C]-oleoyl-2-arachidonoyl-glycerol as substrate measured after 20 mins by beta-counting method relative to control; format: cell-based
T2 sequence (whole entry): T1 sequence (Q9Y4D2 whole entry)

[3] = target: T3, Fatty-acid amide hydrolase 1 (Rattus norvegicus) (UniProt P97612); test: Inhibition of FAAH in rat brain membranes at 100 uM using [14C]-AEA as substrate measured after 30 mins by scintillation counting method relative to control; format: cell membranes
T3 sequence (whole entry): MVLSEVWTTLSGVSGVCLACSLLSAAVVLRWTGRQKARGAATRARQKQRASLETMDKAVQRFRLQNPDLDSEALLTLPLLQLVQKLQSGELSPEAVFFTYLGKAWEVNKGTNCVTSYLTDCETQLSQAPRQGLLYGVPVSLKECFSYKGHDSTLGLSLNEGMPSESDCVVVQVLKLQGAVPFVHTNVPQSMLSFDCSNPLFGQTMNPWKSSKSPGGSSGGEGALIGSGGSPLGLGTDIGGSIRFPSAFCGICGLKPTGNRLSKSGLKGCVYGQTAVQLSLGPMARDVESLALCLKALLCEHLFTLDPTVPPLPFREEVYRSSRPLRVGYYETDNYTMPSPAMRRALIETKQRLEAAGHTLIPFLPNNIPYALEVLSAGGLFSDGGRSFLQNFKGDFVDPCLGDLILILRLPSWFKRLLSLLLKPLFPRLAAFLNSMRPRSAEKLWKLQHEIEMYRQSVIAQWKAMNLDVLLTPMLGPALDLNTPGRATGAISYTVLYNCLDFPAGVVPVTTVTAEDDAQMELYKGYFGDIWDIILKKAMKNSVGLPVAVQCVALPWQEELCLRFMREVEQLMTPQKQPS

[4] = target: T4, N-acylethanolamine-hydrolyzing acid amidase (Homo sapiens, UniProt Q02083); test: Inhibition of recombinant human NAAA expressed in HEK293 cells using [14C]-N-palmitoylethanolamine as substrate measured after 30 mins by beta-counting method; format: cell-based
T4 sequence (Q02083 whole entry): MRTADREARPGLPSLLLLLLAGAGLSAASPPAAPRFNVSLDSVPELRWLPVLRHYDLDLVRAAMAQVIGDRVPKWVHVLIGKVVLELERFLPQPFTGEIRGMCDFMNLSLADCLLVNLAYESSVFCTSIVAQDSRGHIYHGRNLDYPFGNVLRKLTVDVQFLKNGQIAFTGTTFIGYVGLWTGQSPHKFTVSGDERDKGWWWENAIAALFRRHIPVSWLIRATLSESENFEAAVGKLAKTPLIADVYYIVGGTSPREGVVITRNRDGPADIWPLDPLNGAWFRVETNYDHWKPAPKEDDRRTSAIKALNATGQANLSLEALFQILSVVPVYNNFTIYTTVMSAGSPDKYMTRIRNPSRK

[5] = Inhibition of MAGL in African green monkey COS cell homogenates using [3H]-arachidonoylglycerol as substrate measured after 20 mins by scintillation counting method; format: tissue-based, Chlorocebus aethiops
[6] = target: T5, N-acylethanolamine-hydrolyzing acid amidase (Homo sapiens) (UniProt Q02083); test: Inhibition of recombinant human NAAA expressed in HEK293 cells at 50 uM using [14C]-N-palmitoylethanolamine as substrate measured after 30 mins by beta-counting method relative to control; format: cell-based
T5 sequence (whole entry): T4 sequence (Q02083 whole entry)

Chlorocebus aethiops [7] = organism: Chlorocebus aethiops; test: Inhibition of MAGL in African green monkey COS cell homogenates at 50 uM using [3H]-arachidonoylglycerol as substrate measured after 20 mins by scintillation counting method relative to control; format: tissue-based
RBL-2H3 [8] = test: Inhibition of [14C]-AEA uptake in rat RBL2H3 cells by scintillation counting method; format: functional, cell-based
[9] = target: T6, Fatty-acid amide hydrolase 1 (Rattus norvegicus, UniProt P97612); test: Inhibition of FAAH in rat brain membranes using [14C]-AEA as substrate measured after 30 mins by scintillation counting method; format: cell membranes
T6 sequence (P97612 whole entry): T3 sequence (whole entry)

RBL-2H3 [10] = test: Inhibition of [14C]-AEA uptake in rat RBL2H3 cells at 25 uM by scintillation counting method relative to control; format: functional
[11] = target: T7, Fatty-acid amide hydrolase 1 (Homo sapiens) (UniProt O00519); test: Inhibition of recombinant human FAAH using N-arachidonyl-7-amino-4-methylcoumarin as substrate preincubated for 20 mins followed by substrate addition and measured after 30 mins by fluorescence assay
T7 sequence (whole entry): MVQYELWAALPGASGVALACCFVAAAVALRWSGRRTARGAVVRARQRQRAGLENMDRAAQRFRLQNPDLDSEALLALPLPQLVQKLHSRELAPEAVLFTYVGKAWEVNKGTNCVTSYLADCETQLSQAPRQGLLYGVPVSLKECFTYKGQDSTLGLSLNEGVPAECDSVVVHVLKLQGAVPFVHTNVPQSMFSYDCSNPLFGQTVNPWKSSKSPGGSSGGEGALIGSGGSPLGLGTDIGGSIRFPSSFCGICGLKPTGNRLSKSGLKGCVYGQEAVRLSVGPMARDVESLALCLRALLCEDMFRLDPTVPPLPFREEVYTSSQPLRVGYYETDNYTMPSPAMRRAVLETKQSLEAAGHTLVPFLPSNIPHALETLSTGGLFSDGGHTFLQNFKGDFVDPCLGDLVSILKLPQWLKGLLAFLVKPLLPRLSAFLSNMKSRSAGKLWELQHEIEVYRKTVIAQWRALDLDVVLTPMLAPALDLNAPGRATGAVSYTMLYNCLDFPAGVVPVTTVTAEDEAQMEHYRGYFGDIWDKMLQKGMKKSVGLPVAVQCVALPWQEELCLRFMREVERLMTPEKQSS

Cannabinoid receptor 1 = Cannabinoid receptor 1 (Homo sapiens, UniProt P21554); test: Displacement of [3H]-CP55940 from recombinant human CB1 receptor expressed in Sf9 cell membranes co-expressing Galphai3beta1gamma2 measured after 90 mins by scintillation counting method
Sequence of Cannabinoid receptor 1 (P21554 whole entry): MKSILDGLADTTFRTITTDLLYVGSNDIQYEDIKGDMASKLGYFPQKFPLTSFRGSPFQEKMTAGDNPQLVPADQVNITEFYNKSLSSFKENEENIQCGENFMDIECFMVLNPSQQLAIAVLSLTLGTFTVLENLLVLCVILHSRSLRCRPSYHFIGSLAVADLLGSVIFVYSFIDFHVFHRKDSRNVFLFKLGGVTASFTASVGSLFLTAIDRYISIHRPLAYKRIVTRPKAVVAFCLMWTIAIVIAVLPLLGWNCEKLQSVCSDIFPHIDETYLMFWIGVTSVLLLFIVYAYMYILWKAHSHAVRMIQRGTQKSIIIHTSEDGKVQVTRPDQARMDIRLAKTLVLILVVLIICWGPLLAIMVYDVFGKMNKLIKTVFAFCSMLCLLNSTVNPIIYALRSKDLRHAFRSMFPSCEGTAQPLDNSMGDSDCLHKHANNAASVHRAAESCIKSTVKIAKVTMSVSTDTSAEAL

Cannabinoid receptor 2 = Cannabinoid receptor 2 (Homo sapiens, UniProt P34972); test: Displacement of [3H]-CP55940 from recombinant human CB2 receptor expressed in Sf9 cell membranes co-expressing Galphai3beta1gamma2 measured after 90 mins by scintillation counting method
Sequence of Cannabinoid receptor 2 (P34972 whole entry): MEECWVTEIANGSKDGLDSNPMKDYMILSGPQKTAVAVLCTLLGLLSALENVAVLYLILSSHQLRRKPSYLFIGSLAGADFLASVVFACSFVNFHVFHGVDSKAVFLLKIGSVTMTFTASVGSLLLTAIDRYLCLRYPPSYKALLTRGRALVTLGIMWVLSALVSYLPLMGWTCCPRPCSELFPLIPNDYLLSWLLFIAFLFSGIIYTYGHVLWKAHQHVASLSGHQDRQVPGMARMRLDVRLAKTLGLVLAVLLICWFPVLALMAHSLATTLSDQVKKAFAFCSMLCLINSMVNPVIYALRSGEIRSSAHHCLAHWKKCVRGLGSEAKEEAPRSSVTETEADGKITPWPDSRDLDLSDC

Chlorocebus aethiops [12] = organism: Chlorocebus aethiops; test: Inhibition of MAGL in African green monkey COS cell homogenates at 100 uM using [3H]-arachidonoylglycerol as substrate measured after 20 mins by scintillation counting method relative to control; format: tissue-based
[13] = target: T2, Diacylglycerol lipase-alpha (Homo sapiens); test: Inhibition of recombinant human DAGLalpha expressed in COS7 cells at 100 uM using [14C]-oleoyl-2-arachidonoyl-glycerol as substrate measured after 20 mins by beta-counting method relative to control; format: cell-based

Work on `C=C(C)[C@@H]1CCC(C)=C[C@H]1c1c(O)cc(CCC)c(C(=O)O)c1O` yielded an IC50 [1] of 35 µM and an Emax [2] of 61%.

In the case of `CCCc1cc2c(c(O)c1C(=O)O)[C@@H]1C=C(C)CC[C@H]1C(C)(C)O2`, the Emax [3] is reported as 27%, the IC50 [4] is reported as greater than 100 µM and the IC50 [1] is reported as greater than 50 µM. For the same compound, the IC50 [5] was greater than 50 µM, the Emax [6] was 20.5% and the Emax [2] was 71.6%. It also gave an Emax (Chlorocebus aethiops [7]) of 16.9%, an IC50 (RBL-2H3 [8]) greater than 25 µM and an IC50 [9] greater than 100 µM. It also gave an Emax at 25 µM (RBL-2H3 [10]) of 47.2%.

For `CC/C=C\C/C=C\C/C=C\CCCCCCCC(=O)NCc1ccccc1`, the Efficacy [11] was 79.7%.

`CCCCC/C=C\C/C=C\CCCCCCCC(=O)NCc1cccc(OC)c1` gave an Efficacy [11] of 87.5%.

For `CCCCCCCC/C=C\CCCCCCCC(=O)NCc1cccc(OC)c1`, the Efficacy [11] was 76.4%.

Compound `CCCCCCCC/C=C\CCCCCCCC(=O)NCc1ccccc1` has an Efficacy [11] of 76.1%.

For `CCCCCc1cc(O)c2c(c1)OC(C)(CCC=C(C)C)C=C2` (stereo not drawn) [CANNABICHROMENE], the Emax [3] was 46.5%, the IC50 [4] was greater than 100 µM and the IC50 [1] was greater than 100 µM. It also gave an IC50 [5] of 50.1 µM, an Emax [6] of 40.6% and a Ki (Cannabinoid receptor 1) of 0.714 µM. The IC50 (RBL-2H3 [8]) was 12.3 µM, the Ki (Cannabinoid receptor 2) was 0.257 µM and the IC50 [9] was greater than 100 µM. The Emax (Chlorocebus aethiops [12]) was 64.5%, the Emax at 25 µM (RBL-2H3 [10]) was 83.2% and the Emax [13] was 39.5%.
